Assay results: patent publication US12448389B2, “BRM targeting compounds and associated methods of use” (Prelude Therapeutics Incorporated, priority 2020, dated 2025)

Assays:
SMARCA4-HiBiT = target: T1, SMARCA4-HiBiT (Homo sapiens, UniProt P51532); experiment: SMARCA4 HiBiT degradation assay in HeLa cells; format: cell-based; conditions: 18 hours incubation; for DC50: read-out: HeLa-HiBit-SM4 DC50; for Dmax: HeLa, read-out: HeLa-HiBit-SM4 Dmax (%)
T1 construct: SMARCA4-HiBiT knock-in Hela monoclonal cell (CS3023226); host or cells: HeLa monoclonal knock-in line (CRISPR HiBiT knock-in at the endogenous locus, heterozygous)
Summary of the method: (§1)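 HeLa monoclonal lines with heterozygous HiBiT knock-in were seeded at 2500 cells/well in EMEM with 10% FBS and treated with compound for 18 h at 37 °C. Remaining tagged protein was measured by Nano-Glo HiBiT lytic luminescence after 30–60 min at RT, and values came from curve fitting.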

SMARCA2-HiBiT = target: T2, SMARCA2-HiBiT (Homo sapiens, UniProt P51531); experiment: SMARCA2 HiBiT degradation assay in HeLa cells; format: cell-based; conditions: 18 hours incubation; for DC50: read-out: HeLa_HiBit-SM2 DC50; for Dmax: HeLa, read-out: HeLa-HiBit-SM2 Dmax (%)
T2 construct: SMARCA2-HiBiT knock-in Hela monoclonal cell (CS302366); host or cells: HeLa monoclonal knock-in line (CRISPR HiBiT knock-in at the endogenous locus, heterozygous)
Summary of the method: as §1

T1 sequence (P51532 whole entry): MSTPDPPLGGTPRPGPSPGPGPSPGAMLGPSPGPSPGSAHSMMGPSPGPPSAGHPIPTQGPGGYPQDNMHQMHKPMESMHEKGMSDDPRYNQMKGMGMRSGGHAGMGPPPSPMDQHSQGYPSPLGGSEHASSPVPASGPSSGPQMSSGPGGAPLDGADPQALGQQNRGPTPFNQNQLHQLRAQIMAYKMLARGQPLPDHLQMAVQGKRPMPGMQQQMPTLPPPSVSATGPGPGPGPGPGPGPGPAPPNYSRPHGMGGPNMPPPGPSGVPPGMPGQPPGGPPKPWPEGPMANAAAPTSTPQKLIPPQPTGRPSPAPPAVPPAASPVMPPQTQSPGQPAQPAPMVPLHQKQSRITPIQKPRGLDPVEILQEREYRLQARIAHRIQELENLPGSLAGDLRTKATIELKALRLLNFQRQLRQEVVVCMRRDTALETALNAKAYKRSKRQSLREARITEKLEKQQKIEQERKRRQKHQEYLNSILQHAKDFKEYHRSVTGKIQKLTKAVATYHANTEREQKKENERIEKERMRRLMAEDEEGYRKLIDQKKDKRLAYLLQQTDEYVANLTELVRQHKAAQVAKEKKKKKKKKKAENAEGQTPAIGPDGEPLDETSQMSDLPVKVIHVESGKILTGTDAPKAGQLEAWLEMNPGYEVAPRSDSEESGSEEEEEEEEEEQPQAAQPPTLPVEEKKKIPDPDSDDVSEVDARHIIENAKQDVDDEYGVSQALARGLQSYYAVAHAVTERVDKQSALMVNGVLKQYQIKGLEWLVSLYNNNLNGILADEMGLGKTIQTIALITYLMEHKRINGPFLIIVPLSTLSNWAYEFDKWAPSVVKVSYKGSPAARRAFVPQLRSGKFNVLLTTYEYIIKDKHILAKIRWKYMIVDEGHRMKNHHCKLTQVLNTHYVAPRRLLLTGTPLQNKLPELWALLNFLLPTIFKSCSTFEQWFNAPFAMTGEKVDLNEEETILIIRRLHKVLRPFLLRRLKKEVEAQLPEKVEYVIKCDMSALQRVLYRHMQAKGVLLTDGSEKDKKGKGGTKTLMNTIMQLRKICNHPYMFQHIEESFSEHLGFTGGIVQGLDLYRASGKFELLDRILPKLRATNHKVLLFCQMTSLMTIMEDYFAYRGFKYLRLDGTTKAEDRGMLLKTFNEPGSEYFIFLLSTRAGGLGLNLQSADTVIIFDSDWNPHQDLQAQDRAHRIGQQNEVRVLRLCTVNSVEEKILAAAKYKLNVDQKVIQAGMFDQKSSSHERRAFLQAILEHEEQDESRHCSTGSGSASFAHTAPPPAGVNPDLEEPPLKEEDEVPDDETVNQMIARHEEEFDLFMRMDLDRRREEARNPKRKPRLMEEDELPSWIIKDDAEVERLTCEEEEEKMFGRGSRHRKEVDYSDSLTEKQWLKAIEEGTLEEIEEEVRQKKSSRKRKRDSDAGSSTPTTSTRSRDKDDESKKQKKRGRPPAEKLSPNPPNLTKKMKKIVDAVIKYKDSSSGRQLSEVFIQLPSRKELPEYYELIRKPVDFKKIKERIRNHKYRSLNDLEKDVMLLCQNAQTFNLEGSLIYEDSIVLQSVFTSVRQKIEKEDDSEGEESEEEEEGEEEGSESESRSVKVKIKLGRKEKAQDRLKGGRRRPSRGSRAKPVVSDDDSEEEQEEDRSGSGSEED
T2 sequence (P51531 whole entry): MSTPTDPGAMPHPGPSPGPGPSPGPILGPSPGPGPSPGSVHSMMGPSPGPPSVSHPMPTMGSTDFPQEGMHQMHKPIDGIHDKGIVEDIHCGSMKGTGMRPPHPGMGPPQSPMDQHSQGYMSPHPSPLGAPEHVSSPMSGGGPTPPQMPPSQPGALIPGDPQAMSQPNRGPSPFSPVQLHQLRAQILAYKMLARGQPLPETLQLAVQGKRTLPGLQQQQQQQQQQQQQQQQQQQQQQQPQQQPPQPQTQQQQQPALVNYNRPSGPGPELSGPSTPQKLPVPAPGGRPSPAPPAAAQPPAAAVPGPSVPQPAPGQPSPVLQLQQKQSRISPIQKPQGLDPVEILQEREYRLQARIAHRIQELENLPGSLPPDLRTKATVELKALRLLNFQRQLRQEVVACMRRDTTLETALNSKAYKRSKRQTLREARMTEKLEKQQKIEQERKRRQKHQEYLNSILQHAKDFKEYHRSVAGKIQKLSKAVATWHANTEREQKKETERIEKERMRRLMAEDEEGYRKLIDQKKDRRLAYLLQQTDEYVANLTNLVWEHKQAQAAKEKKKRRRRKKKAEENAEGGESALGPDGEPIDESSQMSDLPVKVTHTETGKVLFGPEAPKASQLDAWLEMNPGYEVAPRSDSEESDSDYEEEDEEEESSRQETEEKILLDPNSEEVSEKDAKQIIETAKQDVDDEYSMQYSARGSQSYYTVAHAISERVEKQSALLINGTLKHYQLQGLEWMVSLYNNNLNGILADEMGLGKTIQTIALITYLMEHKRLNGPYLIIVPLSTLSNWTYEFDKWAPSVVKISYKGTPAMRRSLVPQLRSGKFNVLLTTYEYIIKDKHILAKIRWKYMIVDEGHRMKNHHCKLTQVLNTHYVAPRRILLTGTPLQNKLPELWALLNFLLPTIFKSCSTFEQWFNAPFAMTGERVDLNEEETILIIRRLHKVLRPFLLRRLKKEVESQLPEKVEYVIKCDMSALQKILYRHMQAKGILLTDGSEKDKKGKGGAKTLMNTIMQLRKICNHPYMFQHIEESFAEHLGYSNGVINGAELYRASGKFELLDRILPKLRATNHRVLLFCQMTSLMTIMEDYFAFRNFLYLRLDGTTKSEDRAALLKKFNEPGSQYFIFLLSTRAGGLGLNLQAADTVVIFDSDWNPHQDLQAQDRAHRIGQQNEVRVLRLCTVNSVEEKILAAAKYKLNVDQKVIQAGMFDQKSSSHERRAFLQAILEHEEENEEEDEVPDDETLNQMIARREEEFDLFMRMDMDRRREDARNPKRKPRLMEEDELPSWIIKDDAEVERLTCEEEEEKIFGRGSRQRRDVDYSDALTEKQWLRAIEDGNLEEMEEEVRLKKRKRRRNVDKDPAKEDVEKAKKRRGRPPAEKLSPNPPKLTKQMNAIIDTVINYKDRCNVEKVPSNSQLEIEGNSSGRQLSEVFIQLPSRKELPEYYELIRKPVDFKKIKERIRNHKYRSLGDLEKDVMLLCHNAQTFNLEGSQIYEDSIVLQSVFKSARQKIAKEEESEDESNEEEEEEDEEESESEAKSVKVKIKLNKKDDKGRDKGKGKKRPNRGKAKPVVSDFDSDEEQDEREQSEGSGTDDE

SMILES | DC50 (SMARCA4-HiBiT) [nM] | Dmax (SMARCA4-HiBiT) [%] | DC50 (SMARCA2-HiBiT) [nM] | Dmax (SMARCA2-HiBiT) [%] | HeLa-HiBit-SM4 Dmax (%) (SMARCA4-HiBiT) | HeLa-HiBit-SM2 Dmax (%) (SMARCA2-HiBiT)
O=C1CCC(N2C(=O)c3ccc(OC4CCN(CC5CCN(C(=O)N6CCN7c8cc(-c9ccccc9O)nnc8NC[C@H]7C6)CC5)CC4)cc3C2=O)C(=O)N1 (stereo partly drawn) [Example 145, 2-(2,6-dioxopiperidin-3-yl)-5-((1-((1-((S)-2-(2-hydroxyphenyl)-6,6a,7,8,9,10-hexahydro-5H-pyrazino[1′,2′:4,5]pyrazino[2,3-c]pyridazine-8-carbonyl)piperidin-4-yl)methyl)piperidin-4-yl)oxy)isoindoline-1,3-dione] | 10 to 100 | 75 to 85 | < 10 | 75 to 85 | – | –
CCC1CN(CC2CCN(c3ccc4c(c3)C(=O)N(C3CCC(=O)NC3=O)C4=O)CC2)CCN1C(=O)N1CCN2c3cc(-c4ccccc4O)nnc3NC[C@H]2C1 (stereo partly drawn) [Example 269, 2-(2,6-dioxopiperidin-3-yl)-5-(4-((3-ethyl-4-((S)-2-(2-hydroxyphenyl)-6,6a,7,8,9,10-hexahydro-5H-pyrazino[1′,2′:4,5]pyrazino[2,3-c]pyridazine-8-carbonyl)piperazin-1-yl)methyl)piperidin-1-yl)isoindoline-1,3-dione] | 10 to 100 | 50 to 75 | < 10 | 75 to 85 | – | –
O=C1CCC(N2C(=O)c3ccc(NCCN4CCN(C(=O)N5CCN6c7cc(-c8ccccc8O)nnc7NC[C@H]6C5)CC4)cc3C2=O)C(=O)N1 (stereo partly drawn) [Example 219, 2-(2,6-dioxopiperidin-3-yl)-5-((2-(4-((S)-2-(2-hydroxyphenyl)-6,6a,7,8,9,10-hexahydro-511-pyrazino[1′,2′:4,5]pyrazino[2,3-c]pyridazine-8-carbonyl)piperazin-1-yl)ethyl)amino) isoindoline-1,3-dione] | 10 to 100 | ≤ 50 | < 10 | 50 to 75 | – | –
O=C1CCC(N2C(=O)c3ccc(N4CCC(CN5C[C@@H]6[C@H](C5)[C@H]6CN5CCN6c7cc(-c8ccccc8O)nnc7NC[C@H]6C5)C(F)(F)C4)cc3C2=O)C(=O)N1 (stereo partly drawn) [Example 182, 5-[3,3-difluoro-4-[[(1S,5R)-6-[[(10S)-4-(2-hydroxyphenyl)-1,5,6,8,12-pentazatricyclo[8.4.0.02,7]tetradeca-2(7),3,5-trien-12-yl]methyl]-3-azabicyclo[3.1.0]hexan-3-yl]methyl]piperidin-1-yl]-2-(2,6-dioxopiperidin-3-yl)isoindole-1,3-dione] | 10 to 100 | 50 to 75 | < 10 | > 85 | – | –
O=C1CCC(N2C(=O)c3ccc(Oc4ccc(N5CCC(N6CCN7c8cc(-c9ccccc9O)nnc8NC[C@H]7C6)CC5)cc4)cc3C2=O)C(=O)N1 (stereo partly drawn) [Example 241, 2-(2,6-dioxopiperidin-3-yl)-5-(4-(4-((S)-2-(2-hydroxyphenyl)-5,6,6a,7,9,10-hexahydro-8H-pyrazino[1′,2′:4,5]pyrazino[2,3-c]pyridazin-8-yl)piperidin-1-yl)phenoxy)isoindoline-1,3-dione] | 10 to 100 | 75 to 85 | < 10 | 50 to 75 | – | –
O=C1CCC(N2Cc3cc(C4CCN(C5CCN(CCN6CCN7c8cc(-c9ccccc9O)nnc8NC[C@H]7C6)CC5)CC4)ccc3C2=O)C(=O)N1 (stereo partly drawn) [Example 212, 3-(5-(1′-(2-((S)-2-(2-hydroxyphenyl)-5,6,6a,7,9,10-hexahydro-8H-pyrazino[1′,2′:4,5]pyrazino[2,3-c]pyridazin-8-yl)ethyl)-[1,4′-bipiperidin]-4-yl)-1-oxoisoindolin-2-yl)piperidine-2,6-dione] | < 10 | > 85 | < 10 | > 85 | – | –
O=C1CCC(N2Cc3ccc(N4CCC(CN5CCN(C(=O)N6CCN7c8cc(-c9ccccc9O)nnc8NC[C@H]7C6)C6(CC6)C5)CC4)cc3C2=O)C(=O)N1 (stereo partly drawn) [Example 262, 3-(6-(4-((4-((S)-2-(2-hydroxyphenyl)-6,6a,7,8,9,10-hexahydro-5H-pyrazino[1′,2′:4,5]pyrazino[2,3-c]pyridazine-8-carbonyl)-4,7-diazaspiro[2.5]octan-7-yl)methyl)piperidin-1-yl)-1-oxoisoindolin-2-yl)piperidine-2,6-dione] | < 10 | > 85 | < 10 | > 85 | – | –
O=C1CCC(N2Cc3ccc(N4CCC(CN5C[C@@H]6[C@H](C5)[C@H]6CN5CCN6c7cc(-c8ccccc8O)nnc7NC[C@H]6C5)CC4)cc3C2=O)C(=O)N1 (stereo partly drawn) [Example 232, 3-(6-(4-(((1R,5S,6r)-6-(((S)-2-(2-hydroxyphenyl)-5,6,6a,7,9,10-hexahydro-8H-pyrazino[1′,2′:4,5]pyrazino[2,3-c]pyridazin-8-yl)methyl)-3-azabicyclo[3.1.0]hexan-3-yl)methyl)piperidin-1-yl)-1-oxoisoindolin-2-yl)piperidine-2,6-dione] | < 10 | > 85 | < 10 | > 85 | – | –
CCC1CN(CC2CCN(c3ccc4c(c3)C(=O)N(C3CCC(=O)NC3=O)C4)CC2)CCN1C(=O)N1CCN2c3cc(-c4ccccc4O)nnc3NC[C@H]2C1 (stereo partly drawn) [Example 271, 3-(6-(4-((3-ethyl-4-((S)-2-(2-hydroxyphenyl)-6,6a,7,8,9,10-hexahydro-5H-pyrazino[1′,2′:4,5]pyrazino[2,3-c]pyridazine-8-carbonyl)piperazin-1-yl)methyl)piperidin-1-yl)-1-oxoisoindolin-2-yl)piperidine-2,6-dione] | < 10 | – | < 10 | – | – | –

Second part, the compound after the results:

DC50 (SMARCA4-HiBiT) [nM] | Dmax (SMARCA4-HiBiT) [%] | DC50 (SMARCA2-HiBiT) [nM] | Dmax (SMARCA2-HiBiT) [%] | HeLa-HiBit-SM4 Dmax (%) (SMARCA4-HiBiT) | HeLa-HiBit-SM2 Dmax (%) (SMARCA2-HiBiT) | SMILES
< 10 | > 85 | < 10 | > 85 | – | – | O=C1CCC(N2Cc3cc(CCN4CCC(N5CCC(N6CCN7c8cc(-c9ccccc9O)nnc8NC[C@H]7C6)CC5)CC4)ccc3C2=O)C(=O)N1 (stereo partly drawn) [Example 62, 3-(5-(2-(4-((S)-2-(2-hydroxyphenyl)-5,6,6a,7,9,10-hexahydro-8H-pyrazino[1′,2′:4,5]pyrazino[2,3-c]pyridazin-8-yl)-[1,4′-bipiperidin]-1′-yl)ethyl)-1-oxoisoindolin-2-yl)piperidine-2,6-dione]
< 10 | > 85 | < 10 | > 85 | – | – | O=C1CCC(N2C(=O)c3ccc(N4CCC(CN5CCC6(CN7CCN8c9cc(-c%10ccccc%10O)nnc9NC[C@H]8C7)CC6C5)CC4)cc3C2=O)C(=O)N1 (stereo partly drawn) [Example 171, 2-(2,6-dioxopiperidin-3-yl)-5-[4-[[6-[[(10S)-4-(2-hydroxyphenyl)-1,5,6,8,12-pentazatricyclo[8.4.0.02,7]tetradeca-2,4,6-trien-12-yl]methyl]-3-azabicyclo[4.1.0]heptan-3-yl]methyl]piperidin-1-yl]isoindole-1,3-dione]
< 10 | – | < 10 | – | B (B=75%<Dmax<=85%) | A (A=Dmax>85%) | O=C1CCC(N2C(=O)c3ccc(N4CC[C@H](CN5C[C@@H]6[C@H](C5)[C@H]6CN5CCN6c7cc(-c8ccccc8O)nnc7NC[C@H]6C5)[C@@H](F)C4)cc3C2=O)C(=O)N1 (stereo partly drawn) [Example 194, 2-(2,6-dioxopiperidin-3-yl)-5-[(3R,4R)-3-fluoro-4-[[(1S,5R)-6-[[(10S)-4-(2-hydroxyphenyl)-1,5,6,8,12-pentazatricyclo[8.4.0.02,7]tetradeca-2(7),3,5-trien-12-yl]methyl]-3-azabicyclo[3.1.0]hexan-3-yl]methyl]piperidin-1-yl]isoindole-1,3-dione]
< 10 | > 85 | < 10 | > 85 | – | – | CCC1CN(CC2CCN(c3ccc4c(c3)C(=O)N(C3CCC(=O)NC3=O)C4)CC2)CCN1C(=O)N1CCN2c3cc(-c4ccccc4O)nnc3NC[C@H]2C1 (stereo partly drawn) [Example 270, 3-(6-(4-((3-ethyl-4-((S)-2-(2-hydroxyphenyl)-6,6a,7,8,9,10-hexahydro-5H-pyrazino[1′,2′:4,5]pyrazino[2,3-c]pyridazine-8-carbonyl)piperazin-1-yl)methyl)piperidin-1-yl)-1-oxoisoindolin-2-yl)piperidine-2,6-dione]
< 10 | 50 to 75 | < 10 | 75 to 85 | – | – | CC(CN1CCC(N2CCN3c4cc(-c5ccccc5O)nnc4NC[C@H]3C2)CC1)Oc1ccc2c(c1)CN([C@@H]1CCC(=O)NC1=O)C2=O (stereo partly drawn) [Example 214, (3R)-3-(5-((1-(4-((S)-2-(2-hydroxyphenyl)-5,6,6a,7,9,10-hexahydro-8H-pyrazino[1′,2′:4,5]pyrazino[2,3-c]pyridazin-8-yl)piperidin-1-yl)propan-2-yl)oxy)-1-oxoisoindolin-2-yl)piperidine-2,6-dione]
< 10 | 75 to 85 | < 10 | > 85 | – | – | O=C1CCC(N2Cc3cc(OCCCN4CCC(N5CCN6c7cc(-c8ccccc8O)nnc7NC[C@H]6C5)CC4)ccc3C2=O)C(=O)N1 (stereo partly drawn) [Example 237, 3-(5-(3-(4-((S)-2-(2-hydroxyphenyl)-5,6,6a,7,9,10-hexahydro-8H-pyrazino[1′,2′:4,5]pyrazino[2,3-c]pyridazin-8-yl)piperidin-1-yl)propoxy)-1-oxoisoindolin-2-yl)piperidine-2,6-dione]
< 10 | 75 to 85 | < 10 | > 85 | – | – | O=C1CCC(N2C(=O)c3ccc(N4CCC(CN5CC(CN6CCN7c8cc(-c9ccccc9O)nnc8NC[C@H]7C6)C5)CC4)cc3C2=O)C(=O)N1 (stereo partly drawn) [Example 36, 2-(2,6-dioxopiperidin-3-yl)-5-(4-((3-(((S)-2-(2-hydroxyphenyl)-5,6,6a,7,9,10-hexahydro-8H-pyrazino[1′,2′:4,5]pyrazino[2,3-c]pyridazin-8-yl)methyl)azetidin-1-yl)methyl)piperidin-1-yl)isoindoline-1,3-dione]
